Common to all, as to type: in vivo, rat
Test [1] can be described thus: Assay C: aldosterone infusion study, radiotelemetrized arterial blood pressure. Particulars: 30-day protocol; uninephrectomized Sprague-Dawley rats, aldosterone + salt alone or with eplerenone 100 mg/kg/day. The procedure:
The procedure of Assay B was expanded upon in a further study. […] Myocardial tissue from animals in each treatment group was examined after 7, 14, or 30 days of treatment. […] Lesions were preceded by the expression and progressive upregulation of proinflammatory molecules.
Male Sprague-Dawley rats, weighing 230 to 250 g, (Harlan Sprague-Dawley Industries, Indianapolis, Ind.) were housed in a room 12-hours light/12-hours dark daily cycle at an ambient temperature of 22±1° C. (n=96). Animals were allowed one week to adjust after arrival and had free access to TEKLAD 22/5 rodent diet (Harlan TEKLAD, Madison, Wis.) and tap water until the initiation of the experiment.
Potassium chloride supplementation was added to the saline solution in order to prevent the potential hypokalemia associated with aldosterone excess.
Treatment At the time of the surgery, an Alzet 2002 osmotic minipump (Alza Corp., Palo Alto, Calif.) containing either vehicle (9% ethanol/87% propylene glycol/4% dH2O) or 1.0 mg/mL d-aldosterone (Sigma Chemical, St. Louis, Mo.) was inserted subcutaneously at the nape of the neck. […]
Animals to be sacrificed after 7 or 14 days of treatment were uninephrectomized and implanted with an Alzet minipump. […] Animals were monitored daily for signs of distress and infection at the surgical site. […]
Radiotelemetrized arterial blood pressure was calculated with the […]

A short description of test [2]: Assay B: aldosterone infusion model, heart histology, vascular inflammatory lesions and myocardial injury. Particulars: aldosterone-infused, saline-drinking, uni-nephrectomized Sprague Dawley rats, 4 weeks; eplerenone 100 mpk p.o; 0.6% KCl in the drinking fluid. The procedure: Assay B: In Vivo Aldosterone Infusion Model
Male Sprague Dawley rats (n=39; BW=250 g)
→ Hearts were harvested and divided by half through a transverse section at the mid-ventricles: The upper half was stored into formalin. The bottom part was snap-frozen in liquid nitrogen for biochemical analysis.
Hearts were stained with hematoxylin&eosin and the collagen specific dye picro-sirius red and were analyzed for determination of interstitial collagen volume fraction and morphologic abnormalities (i.e. necrosis, vascular injury).

Test [3] is described as follows: Assay C: body weight, ventricle weights, tibia length (myocardial hypertrophy). Particulars: for Ventricular hypertrophy (absolute ventricular weights, ventricular weight to tibia length ratios): aldosterone+salt alone or with eplerenone 100 mg/kg/day, 7, 14, 30 days; for Body weight: aldosterone+salt at days 7, 14 and 30 vs vehicle+salt, eplerenone 100 mg/kg/day effect at day 30. The procedure:
The procedure of Assay B was expanded upon in a further study. […] Myocardial tissue from animals in each treatment group was examined after 7, 14, or 30 days of treatment. […] Lesions were preceded by the expression and progressive upregulation of proinflammatory molecules. […] Male Sprague-Dawley rats, weighing 230 to 250 g, (Harlan Sprague-Dawley Industries, Indianapolis, Ind.) were housed in a room 12-hours light/12-hours dark daily cycle at an ambient temperature of 22±1° C. (n=96). Animals were allowed one week to adjust after arrival and had free access to TEKLAD 22/5 rodent diet (Harlan TEKLAD, Madison, Wis.) and tap water until the initiation of the experiment. Prior to surgery the animals were individually weighed and placed in one of the following groups: […] Potassium chloride supplementation was added to the saline solution in order to prevent the potential hypokalemia associated with aldosterone excess. Treatment At the time of the surgery, an Alzet 2002 osmotic minipump (Alza Corp., Palo Alto, Calif.) containing either vehicle (9% ethanol/87% propylene glycol/4% dH2O) or 1.0 mg/mL d-aldosterone (Sigma Chemical, St. Louis, Mo.) was inserted subcutaneously at the nape of the neck. Aldosterone was administered at a dose of 0.75 µg/hour. […] Animals were sacrificed from each group (n=8-13) after 7, 14, or 30 days of treatment. At the cessation of each experimental time point, the animals were anesthetized with pentobarbital (65 mg/kg i.p., Sigma Chemical, St. Louis Mo.) and weighed with a Mettler PM6000 balance (Mettler-Toledo, Inc., Hightstown, N.J.). The abdominal cavity was opened to expose the abdominal aorta. A 16-gauge needle was inserted into the abdominal aorta and the animal was exsanguinated into a 12 cc syringe. The blood sample was transferred immediately into glass serum collection tubes (Terumo Medical Corp., Elkton, Md.) for drug level analysis. The samples were placed on wet ice until sample collection was complete and centrifuged for 15 min at 3000 rev/min at 4° C. Following exsanguination, hearts and kidneys were isolated, removed, rinsed in cold phosphate-buffered saline, and blotted dry. Kidneys were immediately bifurcated through the long axis with a razor blade and placed in 10% neutral buffered formalin (NBF, Richard-Allen Scientific, Kalamazoo, Mich.). For the hearts, the right ventricle (RV) was cut away from the left ventricle (LV), both ventricles were weighed using a Mettler AE163 balance (Mettler-Toledo, Inc., Hightstown, N.J.), and the RV was placed in 10% NBF. […] Final wet trimming was completed after 3-4 days fixation where a second 2 mm coronal slab was removed for hydroxyproline analysis and a third 2mm slab was removed from the equatorial region for histology.

“Also recorded” adds a separate entry of the source.

On to `COC(=O)[C@@H]1CC2=CC(=O)CC[C@]2(C)[C@@]23O[C@@H]2C[C@@]2(C)[C@@H](CC[C@@]24CCC(=O)O4)[C@H]13` [eplerenone], for which the “Systolic blood pressure (radiotelemetry)” value in test [1] is on record as “significantly reduced at days 8-30; also recorded: remained elevated compared to vehicle+salt controls”. Besides, the “Vascular inflammatory lesions / myocardial injury (hematoxylin-eosin)” value in test [2] is “completely prevented the vascular inflammatory changes; also recorded: prevention by eplerenone of myocardial injury”. For the same molecule, the “Final Body Weight” value in test [3] (7 days of treatment, uninephrectomized Sprague-Dawley rats, 1% NaCl-0.3% KCl, aldosterone infusion alone or with eplerenone 100 mg/kg/day, individual rats and group Mean) was 286 g. Besides, in test [3], the “Ventricular hypertrophy (absolute ventricular weights, ventricular weight to tibia length ratios)” value was “did not impact absolute ventricular weights or ventricular weight to tibia length ratios” and the Body weight entry is on record as “significantly attenuated”.
Regarding `C[C@]12CCC(=O)C=C1CC[C@@H]1[C@@H]2[C@@H](O)C[C@]2(C=O)[C@@H](C(=O)CO)CC[C@@H]12` [aldosterone], the “Systolic blood pressure (radiotelemetry)” value in test [1] was “induced severe hypertension; also recorded: induced a progressive increase in blood pressure with time”. For the same molecule, the “Vascular inflammatory lesions / myocardial injury (hematoxylin-eosin)” value in test [2] is on record as “severe vascular inflammatory lesions”. In test [3], the “Ventricular hypertrophy (absolute ventricular weights, ventricular weight to tibia length ratios)” value was “Significant left and right ventricular hypertrophy”; the Body weight entry is listed as “significantly lower”.

The values above are taken from patent US20040037806A1, “Aldosterone blocker therapy to prevent or treat inflammation-related disorders” (Pharmacia Corporation, priority 2002, published 2004).
